Assay results taken from paper PMC10990149 (Proceedings of the National Academy of Sciences of the …, 2024).

Molecular target: T1, DvhD (DVU1020), cytoplasmic fragment (PAS and HD-GYP domains) (Nitratidesulfovibrio vulgaris, UniProt Q72DA9)
T1 sequence (Q72DA9 374-701): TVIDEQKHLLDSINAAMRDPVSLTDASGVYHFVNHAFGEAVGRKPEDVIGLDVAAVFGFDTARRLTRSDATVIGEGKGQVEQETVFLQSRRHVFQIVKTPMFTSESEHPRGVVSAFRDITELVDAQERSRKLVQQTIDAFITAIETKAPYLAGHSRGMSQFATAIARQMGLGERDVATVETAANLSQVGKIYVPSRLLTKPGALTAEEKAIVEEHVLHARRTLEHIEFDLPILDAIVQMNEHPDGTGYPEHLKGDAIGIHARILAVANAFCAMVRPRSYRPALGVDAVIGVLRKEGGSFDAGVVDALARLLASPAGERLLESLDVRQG
Assay: isothermal titration calorimetry
Type: binding

Kd: 0.322 ± 0.081 µM
Compound: Nc1nc2c(ncn2[C@@H]2O[C@@H]3CO[P@](=O)(O)O[C@H]4[C@@H](O)[C@H](n5cnc6c(=O)[nH]c(N)nc65)O[C@@H]4CO[P@](=O)(O)O[C@H]3[C@H]2O)c(=O)[nH]1 [c-di-GMP]
